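A five-concentration, 48-hour dose response in 96-well plates underlies each endpoint, interpolated linearly between surrounding concentrations. At the GI50, growth is halved. The concentration for full growth arrest is given as TGI.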
Tests used:
Assay in all cases: NCI anticancer screen, dose series, 48 h
786-0 renal = system: 786-0 renal
A498 renal = system: A498 renal
A549 NSCLC = system: A549 NSCLC
ACHN renal = system: ACHN renal
BT-549 breast = system: BT-549 breast
CAKI-1 renal = system: CAKI-1 renal
CCRF-CEM leukemia = system: CCRF-CEM leukemia
COLO 205 colon = system: COLO 205 colon
DU-145 prostate = system: DU-145 prostate
EKVX NSCLC = system: EKVX NSCLC
HCC-2998 colon = system: HCC-2998 colon
HCT-116 colon = system: HCT-116 colon
HCT-15 colon = system: HCT-15 colon
HL-60(TB) leukemia = system: HL-60(TB) leukemia
HOP-62 NSCLC = system: HOP-62 NSCLC
HS 578T breast = system: HS 578T breast
HT29 colon = system: HT29 colon
IGROV1 ovarian = system: IGROV1 ovarian
K-562 leukemia = system: K-562 leukemia
KM12 colon = system: KM12 colon
LOX IMVI melanoma = system: LOX IMVI melanoma
M14 melanoma = system: M14 melanoma
MALME-3M melanoma = system: MALME-3M melanoma
MCF7 breast = system: MCF7 breast
MDA-MB-231 breast = system: MDA-MB-231 breast
MDA-MB-435 = system: MDA-MB-435
MOLT-4 leukemia = system: MOLT-4 leukemia
NCI-H226 lung = system: NCI-H226 lung
NCI-H23 lung = system: NCI-H23 lung
NCI-H460 lung = system: NCI-H460 lung
NCI-H522 lung = system: NCI-H522 lung
NCI/ADR-RES ovarian = system: NCI/ADR-RES ovarian
OVCAR-3 ovarian = system: OVCAR-3 ovarian
OVCAR-4 ovarian = system: OVCAR-4 ovarian
OVCAR-5 ovarian = system: OVCAR-5 ovarian
OVCAR-8 ovarian = system: OVCAR-8 ovarian
PC-3 prostate = system: PC-3 prostate
RPMI-8226 leukemia = system: RPMI-8226 leukemia
RXF 393 renal = system: RXF 393 renal
SF-268 CNS = system: SF-268 CNS
SF-295 CNS = system: SF-295 CNS
SF-539 CNS = system: SF-539 CNS
SK-MEL-2 melanoma = system: SK-MEL-2 melanoma
SK-MEL-28 melanoma = system: SK-MEL-28 melanoma
SK-MEL-5 melanoma = system: SK-MEL-5 melanoma
SK-OV-3 ovarian = system: SK-OV-3 ovarian
SN12C renal = system: SN12C renal
SNB-19 CNS = system: SNB-19 CNS
SNB-75 CNS = system: SNB-75 CNS
SR leukemia = system: SR leukemia
SW-620 colon = system: SW-620 colon
T-47D breast = system: T-47D breast
TK-10 renal = system: TK-10 renal
U251 CNS = system: U251 CNS
UACC-257 melanoma = system: UACC-257 melanoma
UACC-62 melanoma = system: UACC-62 melanoma
UO-31 renal = system: UO-31 renal

C[C@@H]1CC[C@@H]2[C@@H]1[C@H](OC(=O)/C=C/c1ccccc1)[C@]1(C3CCCCC3)C[C@@H](NC(=O)CO)[C@@]2(C)O1
GI50 (786-0 renal): 14.9 µM
TGI (786-0 renal): 29.3 µM
GI50 (A498 renal): 2.19 µM
TGI (A498 renal): 6.61 µM
GI50 (A549 NSCLC): 21 µM
TGI (A549 NSCLC): 37 µM
GI50 (ACHN renal): 3.51 µM
TGI (ACHN renal): 13.1 µM
GI50 (BT-549 breast): 13.2 µM
TGI (BT-549 breast): 26.7 µM
GI50 (CAKI-1 renal): 6.01 µM
TGI (CAKI-1 renal): 19.7 µM
GI50 (CCRF-CEM leukemia): 23.2 µM
TGI (CCRF-CEM leukemia): 45.2 µM
GI50 (COLO 205 colon): 16.6 µM
TGI (COLO 205 colon): 33.5 µM
GI50 (DU-145 prostate): 18.4 µM
TGI (DU-145 prostate): 32.9 µM
GI50 (EKVX NSCLC): 13.5 µM
TGI (EKVX NSCLC): 27.5 µM
GI50 (HCC-2998 colon): 18.3 µM
TGI (HCC-2998 colon): 35.1 µM
GI50 (HCT-116 colon): 19.5 µM
TGI (HCT-116 colon): 34.2 µM
GI50 (HCT-15 colon): 15.8 µM
TGI (HCT-15 colon): 33.2 µM
GI50 (HL-60(TB) leukemia): 21.5 µM
TGI (HL-60(TB) leukemia): 40.4 µM
GI50 (HOP-62 NSCLC): 17.4 µM
TGI (HOP-62 NSCLC): 33.5 µM
GI50 (HS 578T breast): 2.79 µM
TGI (HS 578T breast): 9.21 µM
GI50 (HT29 colon): 18.9 µM
TGI (HT29 colon): 35.5 µM
GI50 (IGROV1 ovarian): 17.9 µM
TGI (IGROV1 ovarian): 35.5 µM
GI50 (K-562 leukemia): 21.1 µM
TGI (K-562 leukemia): 45.1 µM
GI50 (KM12 colon): 16.3 µM
TGI (KM12 colon): 32 µM
GI50 (LOX IMVI melanoma): 17.8 µM
TGI (LOX IMVI melanoma): 32.5 µM
GI50 (M14 melanoma): 18.6 µM
TGI (M14 melanoma): 35.6 µM
GI50 (MALME-3M melanoma): 16.3 µM
TGI (MALME-3M melanoma): 33 µM
GI50 (MCF7 breast): 14.4 µM
TGI (MCF7 breast): 32.7 µM
GI50 (MDA-MB-231 breast): 18.9 µM
TGI (MDA-MB-231 breast): 35.4 µM
GI50 (MDA-MB-435): 17.2 µM
TGI (MDA-MB-435): 32.4 µM
GI50 (MOLT-4 leukemia): 18.5 µM
TGI (MOLT-4 leukemia): 39.3 µM
GI50 (NCI-H226 lung): 16.7 µM
TGI (NCI-H226 lung): 32.4 µM
GI50 (NCI-H23 lung): 18.9 µM
TGI (NCI-H23 lung): 38.4 µM
GI50 (NCI-H460 lung): 16.6 µM
TGI (NCI-H460 lung): 32.8 µM
GI50 (NCI-H522 lung): 17.1 µM
TGI (NCI-H522 lung): 33.6 µM
GI50 (NCI/ADR-RES ovarian): 12.9 µM
TGI (NCI/ADR-RES ovarian): 32.1 µM
GI50 (OVCAR-3 ovarian): 17.3 µM
TGI (OVCAR-3 ovarian): 34.2 µM
GI50 (OVCAR-4 ovarian): 16 µM
TGI (OVCAR-4 ovarian): 35.4 µM
GI50 (OVCAR-5 ovarian): 16.2 µM
TGI (OVCAR-5 ovarian): 30.8 µM
GI50 (OVCAR-8 ovarian): 16.3 µM
TGI (OVCAR-8 ovarian): 32 µM
GI50 (PC-3 prostate): 14.9 µM
TGI (PC-3 prostate): 28.9 µM
GI50 (RPMI-8226 leukemia): 20.8 µM
TGI (RPMI-8226 leukemia): 44.4 µM
GI50 (RXF 393 renal): 3.29 µM
TGI (RXF 393 renal): 13.8 µM
GI50 (SF-268 CNS): 14.3 µM
TGI (SF-268 CNS): 30 µM
GI50 (SF-295 CNS): 14.9 µM
TGI (SF-295 CNS): 28.4 µM
GI50 (SF-539 CNS): 16.7 µM
TGI (SF-539 CNS): 31.4 µM
GI50 (SK-MEL-2 melanoma): 16.8 µM
TGI (SK-MEL-2 melanoma): 32.8 µM
GI50 (SK-MEL-28 melanoma): 16.9 µM
TGI (SK-MEL-28 melanoma): 33 µM
GI50 (SK-MEL-5 melanoma): 15.3 µM
TGI (SK-MEL-5 melanoma): 29 µM
GI50 (SK-OV-3 ovarian): 17.9 µM
TGI (SK-OV-3 ovarian): 32.1 µM
GI50 (SN12C renal): 11.4 µM
TGI (SN12C renal): 24.2 µM
GI50 (SNB-19 CNS): 17.6 µM
TGI (SNB-19 CNS): 32.3 µM
GI50 (SNB-75 CNS): 12.6 µM
TGI (SNB-75 CNS): 26.9 µM
GI50 (SR leukemia): 19.8 µM
TGI (SR leukemia): 41.2 µM
GI50 (SW-620 colon): 17.8 µM
TGI (SW-620 colon): 34.1 µM
GI50 (T-47D breast): 14.3 µM
TGI (T-47D breast): 30.8 µM
GI50 (TK-10 renal): 18.4 µM
TGI (TK-10 renal): 35.3 µM
GI50 (U251 CNS): 18.6 µM
TGI (U251 CNS): 34 µM
GI50 (UACC-257 melanoma): 25.2 µM
TGI (UACC-257 melanoma): 42.1 µM
GI50 (UACC-62 melanoma): 16.2 µM
TGI (UACC-62 melanoma): 30.3 µM
GI50 (UO-31 renal): 4.8 µM
TGI (UO-31 renal): 18.7 µM
